From the NIST ThermoML archive (doi:10.1021/acs.jced.7b00841)

Details: for mass density: Liquid, Vibrating tube method; for specific volume: Gas, isochoric method

FC(F)(F)/C=C/Cl [(E)-1-chloro-3,3,3-trifluoroprop-1-ene]
Details	mass density [kg/m3]	specific volume [m3/kg]
283.14 K, 29999 kPa	1358.6	–
283.15 K, 133 kPa	1297.8	–
283.15 K, 500 kPa	1298.7	–
283.15 K, 5000 kPa	1309.8	–
283.15 K, 10000 kPa	1321	–
283.15 K, 15000 kPa	1331.4	–
283.15 K, 20000 kPa	1341.1	–
283.15 K, 35000 kPa	1366.8	–
283.16 K, 1000 kPa	1300	–
283.16 K, 2500 kPa	1303.7	–
283.16 K, 25000 kPa	1350.1	–
293.14 K, 499 kPa	1275.3	–
293.14 K, 1000 kPa	1276.7	–
293.14 K, 2500 kPa	1280.9	–
293.14 K, 5000 kPa	1287.6	–
293.14 K, 15000 kPa	1311.3	–
293.14 K, 20000 kPa	1321.7	–
293.14 K, 35000 kPa	1349.2	–
293.15 K, 151 kPa	1274.3	–
293.15 K, 9999 kPa	1299.9	–
293.15 K, 25000 kPa	1331.4	–
293.16 K, 30000 kPa	1340.6	–
303.15 K, 250 kPa	1250.3	–
303.15 K, 501 kPa	1251.2	–
303.15 K, 1001 kPa	1252.7	–
303.15 K, 2499 kPa	1257.4	–
303.15 K, 5000 kPa	1264.8	–
303.15 K, 35000 kPa	1331.1	–
303.16 K, 10001 kPa	1278.4	–
303.16 K, 15003 kPa	1290.7	–
303.16 K, 20002 kPa	1301.9	–
303.16 K, 25001 kPa	1312.3	–
303.16 K, 30000 kPa	1322	–
308.15 K, 167 kPa	–	0.11
313.14 K, 35000 kPa	1313.5	–
313.15 K, 170 kPa	–	0.1101
313.15 K, 351 kPa	1225.4	–
313.15 K, 501 kPa	1226	–
313.15 K, 1000 kPa	1227.8	–
313.15 K, 2500 kPa	1233.1	–
313.15 K, 5000 kPa	1241.3	–
313.15 K, 10000 kPa	1256.4	–
313.15 K, 15000 kPa	1269.9	–
313.15 K, 19999 kPa	1282.1	–
313.15 K, 25000 kPa	1293.4	–
313.15 K, 30000 kPa	1303.8	–
318.15 K, 174 kPa	–	0.1101
323.15 K, 177 kPa	–	0.1101
323.15 K, 274 kPa	–	0.0684
323.15 K, 500 kPa	1199.9	–
323.15 K, 1000 kPa	1202	–
323.15 K, 2500 kPa	1208	–
323.15 K, 5000 kPa	1217.4	–
323.15 K, 10000 kPa	1234.3	–
323.15 K, 15000 kPa	1249.2	–
323.15 K, 19999 kPa	1262.7	–
323.15 K, 24999 kPa	1274.9	–
323.15 K, 30000 kPa	1286.3	–
323.15 K, 35000 kPa	1296.8	–
328.15 K, 180 kPa	–	0.1101
328.15 K, 280 kPa	–	0.0684
333.14 K, 2500 kPa	1182	–
333.14 K, 20000 kPa	1242.9	–
333.14 K, 25003 kPa	1256.2	–
333.14 K, 30002 kPa	1268.3	–
333.14 K, 35000 kPa	1279.5	–
333.15 K, 183 kPa	–	0.1101
333.15 K, 285 kPa	–	0.0684
333.15 K, 372 kPa	–	0.0508
333.15 K, 500 kPa	1172.6	–
333.15 K, 1000 kPa	1175.1	–
333.15 K, 5000 kPa	1192.7	–
333.15 K, 10000 kPa	1211.7	–
333.15 K, 15001 kPa	1228.2	–
338.15 K, 186 kPa	–	0.1102
338.15 K, 290 kPa	–	0.0685
338.15 K, 380 kPa	–	0.0509
338.15 K, 415 kPa	–	0.0461
343.15 K, 189 kPa	–	0.1102
343.15 K, 296 kPa	–	0.0685
343.15 K, 387 kPa	–	0.0509
343.15 K, 423 kPa	–	0.0461
343.15 K, 458 kPa	–	0.0419
343.15 K, 700 kPa	1145	–
343.15 K, 1000 kPa	1146.6	–
343.15 K, 2500 kPa	1154.6	–
343.15 K, 5000 kPa	1166.8	–
343.15 K, 10000 kPa	1188.1	–
343.15 K, 15000 kPa	1206.2	–
343.15 K, 20003 kPa	1222.1	–
343.15 K, 25000 kPa	1236.4	–
343.15 K, 30001 kPa	1249.4	–
343.15 K, 35002 kPa	1261.5	–
348.15 K, 192 kPa	–	0.1102
348.15 K, 301 kPa	–	0.0685
348.15 K, 394 kPa	–	0.0509
348.15 K, 431 kPa	–	0.0462
348.15 K, 468 kPa	–	0.0419
348.15 K, 550 kPa	–	0.0349
353.15 K, 195 kPa	–	0.1102
353.15 K, 306 kPa	–	0.0685
353.15 K, 401 kPa	–	0.0509
353.15 K, 439 kPa	–	0.0462
353.15 K, 477 kPa	–	0.042
353.15 K, 562 kPa	–	0.0349
353.15 K, 639 kPa	–	0.0297
353.15 K, 801 kPa	1114.4	–
353.15 K, 1000 kPa	1116.5	–
353.15 K, 2500 kPa	1125.4	–
353.15 K, 5000 kPa	1139.8	–
353.15 K, 10000 kPa	1163.9	–
353.15 K, 15000 kPa	1184.3	–
353.15 K, 20000 kPa	1201.7	–
353.15 K, 25000 kPa	1217.2	–
353.15 K, 30000 kPa	1231.2	–
353.15 K, 34999 kPa	1243.9	–
358.15 K, 198 kPa	–	0.1103
358.15 K, 311 kPa	–	0.0685
358.15 K, 409 kPa	–	0.0509
358.15 K, 447 kPa	–	0.0462
358.15 K, 486 kPa	–	0.042
358.15 K, 573 kPa	–	0.0349
358.15 K, 654 kPa	–	0.0297
363.14 K, 20001 kPa	1180.8	–
363.14 K, 35000 kPa	1226.2	–
363.15 K, 202 kPa	–	0.1103
363.15 K, 316 kPa	–	0.0685
363.15 K, 416 kPa	–	0.0509
363.15 K, 455 kPa	–	0.0462
363.15 K, 494 kPa	–	0.042
363.15 K, 584 kPa	–	0.0349
363.15 K, 667 kPa	–	0.0297
363.15 K, 1200 kPa	1085.8	–
363.15 K, 2500 kPa	1095.5	–
363.15 K, 5000 kPa	1112.1	–
363.15 K, 10000 kPa	1139.5	–
363.15 K, 15001 kPa	1161.9	–
363.15 K, 25001 kPa	1197.5	–
363.15 K, 30000 kPa	1212.5	–
368.15 K, 205 kPa	–	0.1103
368.15 K, 321 kPa	–	0.0685
368.15 K, 423 kPa	–	0.0509
368.15 K, 463 kPa	–	0.0462
368.15 K, 503 kPa	–	0.042
368.15 K, 594 kPa	–	0.0349
368.15 K, 680 kPa	–	0.0298
373.15 K, 208 kPa	–	0.1103
373.15 K, 326 kPa	–	0.0686
373.15 K, 430 kPa	–	0.0509
373.15 K, 470 kPa	–	0.0462
373.15 K, 512 kPa	–	0.042
373.15 K, 605 kPa	–	0.0349
373.15 K, 693 kPa	–	0.0298
